This is an account of results in the supplement of paper PMC4862054.

The structures appear in SMILES notation.

What all share (conditions): incubation time: 72 h
The subject of assay [1] is CAL-148. The experiment in a line: normalised viability (% of control), CellTiter-Blue; higher = more viable cells (about 100 = DMSO control). As for the experimental part:
(§1)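 DSRT, CellTiter-Blue viability, 72 h incubation. Signal is normalised to DMSO and benzethonium chloride controls. Value is the normalised response at dose 7.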
In general terms: The colour change of resazurin is a common sign of viable cells or microbes.

Assay [2] relates to CAL-51. Described as above. How it is done:
as §1

For assay [3], the system named is CAL-85-1. The description is as above. As for the experimental part: as §1
In assay [4] the test system is DU-4475. Described as above. How it is done:
as §1

The test system of assay [5] is HDQ-P1. The assay is described as above. As for the experimental part:
as §1

Assay [6] has as its system MDA-MB-453. The description is as above. How it is done:
as §1

A further assay concerns BT-474. The assay is described as follows: normalised response (% of control), CellTiter-Glo; higher = more viable cells (100 = DMSO, 0 = benzethonium chloride kill control). An outline of the steps:
(§2)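 In 384-well plates holding compound at 5 concentrations in 10-fold steps over a 10,000-fold range specific to each compound, breast cancer cell lines were seeded as 20 µl suspension and incubated 72 h. CellTox Green fluorescence was measured at 485/520 nm, after which CellTiter-Glo luminescence was measured following 10 min at room temperature. Plate signals were normalised to 0.1 % DMSO (100) and a positive kill control (0), and each value is the normalised signal at a single concentration.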

For the next assay, the system named is BT-549. Described as above. An outline of the steps:
as §2

The test system of a further assay is CAL-120. The assay is described as above. An outline of the steps:
as §2

Assay [7] concerns CAL-148. Described as above. In short, it runs like this:
as §2

For assay [8], the system named is CAL-51. The description is as above. In short, it runs like this: as §2
The test system of assay [9] is CAL-85-1. Described as above. An outline of the steps: as §2
Assay [10] concerns DU-4475. The description is as above. An outline of the steps: as §2
Another assay deals with HCC1143. Described as above. In short, it runs like this: as §2
Another assay deals with HCC1599. Described as above. In short, it runs like this: as §2
A further assay concerns HCC1937. The description is as above. In short, it runs like this: as §2
Assay [11] has as its system HDQ-P1. The description is as above. In short, it runs like this:
as §2

Another assay concerns Hs578T. The description is as above. An outline of the steps:
as §2

Another assay deals with MCF-10A. Described as above. In short, it runs like this:
as §2

The subject of a further assay is MDA-MB-231. The description is as above. An outline of the steps:
as §2

In a further assay the test system is MDA-MB-436. The description is as above. An outline of the steps:
as §2

The subject of assay [12] is MDA-MB-453. Described as above. In short, it runs like this:
as §2

In a further assay the test system is MDA-MB-468. The description is as above. An outline of the steps: as §2
Another assay has as its system MFM-223. Described as above. An outline of the steps:
as §2

For another assay, the system named is SK-BR-3. The description is as above. An outline of the steps:
as §2

Assay [13] deals with CAL-148. The assay is described as follows: normalised viability (% of control), CellTiter-Blue; higher = more viable cells (about 100 = DMSO control). As for the experimental part:
(§3)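 DSRT, CellTiter-Blue viability, 72 h incubation. Signal is normalised to DMSO and benzethonium chloride controls. Value is the normalised response at dose 9.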
This is another data set of the same source.

Assay [14] deals with CAL-51. The description is as above. As for the experimental part:
as §3
The source holds these as a separate data set.

The test system of assay [15] is CAL-85-1. The description is as above. As for the experimental part:
as §3
This is another data set of the same source.

In assay [16] the test system is DU-4475. The assay is described as above. As for the experimental part: as §3
The source holds these as a separate data set.

Assay [17] deals with HDQ-P1. Described as above. As for the experimental part:
as §3
This is another data set of the same source.

In assay [18] the test system is MDA-MB-453. The assay is described as above. How it is done: as §3
The source holds these as a separate data set.

Assay [19] deals with CAL-148. The description is as above. How it is done: (§4)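 DSRT, CellTiter-Blue viability, 72 h incubation. Signal is normalised to DMSO and benzethonium chloride controls. Value is the normalised response at dose 6.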
The source holds these as a separate data set.

Assay [20] deals with CAL-51. The assay is described as above. How it is done:
as §4
This is another data set of the same source.

For assay [21], the system named is CAL-85-1. The description is as above. As for the experimental part: as §4
The source holds these as a separate data set.

Assay [22] concerns DU-4475. Described as above. As for the experimental part:
as §4
This is another data set of the same source.

Assay [23] concerns HDQ-P1. The assay is described as above. How it is done:
as §4
The source holds these as a separate data set.

Assay [24] concerns MDA-MB-453. The assay is described as above. How it is done: as §4
The source holds these as a separate data set.

As to `COc1cc(Nc2ncc(F)c(Nc3ccc4c(n3)NC(=O)C(C)(C)O4)n2)cc(OC)c1OC` [R406] (1000 nM), the normalised viability with CAL-148 [1] stood at 97.2%; in the assay with CAL-51 [2], 112%; with CAL-85-1 [3], 84.7%; in the assay with DU-4475 [4], 105%; in the assay on HDQ-P1 [5], 103%; with MDA-MB-453 [6], 96.4%.
For the molecule `CCCC(CCC)C(=O)O` [Valproic acid] (1000 nM), the normalised viability in the assay with CAL-148 [1] was found to be 88.8%; in the assay with CAL-51 [2], 89.1%; with CAL-85-1 [3], 90.6%; with DU-4475 [4], 94.8%; in the assay with HDQ-P1 [5], 112%; in the assay on MDA-MB-453 [6], 116%. Also, the normalised response in the assay with BT-474 was determined as 103%; in the assay with BT-549 it was 99.8%; with CAL-120 it was 99.9%; in the assay with CAL-148 [7], 96.2%; in the assay on CAL-51 [8] it was 70.3%; in the assay with CAL-85-1 [9], 93.9%. Besides, the normalised response in the assay on DU-4475 [10] is 94.9%; in the assay with HCC1143 it was 103%; in the assay with HCC1599, 31.2%; in the assay on HCC1937, 99.5%; in the assay on HDQ-P1 [11], 103%; in the assay with Hs578T it was 103%. Besides, the normalised response in the assay on MCF-10A worked out at 98.7%; in the assay on MDA-MB-231, 101%; in the assay on MDA-MB-436, 95.6%; with MDA-MB-453 [12], 111%; in the assay on MDA-MB-468, 93.8%; in the assay on MFM-223 it was 94.5%. The molecule also returned a normalised response in the assay with SK-BR-3 of 92.3%.
With `O=P(O)(NCCCl)NCCCl` [Ifosfamide mustard] (10000 nM), the normalised viability in the assay with CAL-148 [13] amounted to 105%; in the assay on CAL-51 [14] it was 94.3%; in the assay with CAL-85-1 [15] it was 87.1%; with DU-4475 [16], 96.1%; in the assay on HDQ-P1 [17] it was 105%; in the assay on MDA-MB-453 [18] it was 99.8%.
On to `CC[C@@]1(O)C(=O)OCc2c1cc1n(c2=O)Cc2cc3ccccc3nc2-1` [Camptothecin] (5000 nM), for which the normalised viability is 0.33% in the assay on CAL-148 [13]; 1.8% in the assay with CAL-51 [14]; 13.9% with CAL-85-1 [15]; -0.07% in the assay on DU-4475 [16]; 24.2% with HDQ-P1 [17]; 5.48% in the assay on MDA-MB-453 [18].
On to `COC(=O)C[C@](O)(CCCC(C)(C)O)C(=O)O[C@@H]1C(OC)=C[C@]23CCCN2CCc2cc4c(cc2[C@H]13)OCO4` [Omacetaxine mepesuccinate] (1000 nM), for which the normalised viability in the assay with CAL-148 [1] was determined as 12.4%; with CAL-51 [2] it was 4.98%; in the assay on CAL-85-1 [3] it was 3.04%; in the assay on DU-4475 [4], 9.53%; in the assay on HDQ-P1 [5], 13.1%; in the assay on MDA-MB-453 [6] it was 15.1%.
`COc1cc(Nc2ncc(F)c(Nc3ccc4c(n3)NC(=O)C(C)(C)O4)n2)cc(OC)c1OC` [R406] (10000 nM): the normalised viability in the assay with CAL-148 [13] stood at 99.8%; in the assay with CAL-51 [14], 97.8%; in the assay with CAL-85-1 [15] it was 94.6%; in the assay with DU-4475 [16] it was 102%; in the assay with HDQ-P1 [17] it was 108%; with MDA-MB-453 [18], 110%.
`c1ccc(C2CN3CCSC3=N2)cc1` (stereo not given) [Tetramisole] (10000 nM): the normalised viability in the assay with CAL-148 [13] is 117%; with CAL-51 [14], 89.3%; in the assay with CAL-85-1 [15] it was 98.1%; in the assay on DU-4475 [16], 101%; in the assay on HDQ-P1 [17] it was 116%; in the assay on MDA-MB-453 [18], 99.5%.
As to `O=P(O)(NCCCl)NCCCl` [Ifosfamide mustard] (1000 nM), the normalised viability with CAL-148 [1] was 111%; in the assay with CAL-51 [2], 107%; in the assay on CAL-85-1 [3] it was 89.4%; with DU-4475 [4] it was 112%; with HDQ-P1 [5] it was 119%; in the assay on MDA-MB-453 [6], 104%.
Regarding `CC[C@@]1(O)C(=O)OCc2c1cc1n(c2=O)Cc2cc3ccccc3nc2-1` [Camptothecin] (150 nM), the normalised viability in the assay with CAL-148 [19] came to 12.8%; in the assay with CAL-51 [20], 12.7%; in the assay with CAL-85-1 [21], 61%; in the assay with DU-4475 [22], 13.9%; in the assay with HDQ-P1 [23], 48.3%; in the assay with MDA-MB-453 [24] it was 50.7%.
Turning to `CN1CCN(c2ccc3nc(-c4c(N)c5c(F)cccc5[nH]c4=O)[nH]c3c2)CC1` [Dovitinib] (300 nM), the normalised viability in the assay on CAL-148 [19] came to 98.7%; in the assay with CAL-51 [20], 109%; with CAL-85-1 [21] it was 86.9%; with DU-4475 [22] it was 86.5%; in the assay on HDQ-P1 [23], 54.7%; with MDA-MB-453 [24] it was 94.5%.
Take `COC1=C2C[C@@H](C)C[C@H](OC)[C@H](O)[C@@H](C)/C=C(\C)[C@H](OC(N)=O)[C@@H](OC)/C=C\C=C(/C)C(=O)NC(=CC1=O)C2=O` [Geldanamycin] (300 nM): the normalised viability worked out at 28.9% with CAL-148 [19]; 74.5% with CAL-51 [20]; 47.7% with CAL-85-1 [21]; 0.05% in the assay with DU-4475 [22]; 46.5% with HDQ-P1 [23]; 6.01% in the assay on MDA-MB-453 [24].
